What all share (format): in vivo, mouse
Assay [1] has as its system skeletal muscle (vastus laterais, gastrocnemius, soleus). Nature of the assay: Skeletal muscle fiber type and immunoblot. The following applies: butyrate 5% w/w in HFD 13 weeks. The text has this: Fresh fat and muscles were collected and frozen in liquid nitrogen. The whole cell lysate protein was extract in lysis buffer with sonication and analyzed in western blot as described elsewhere (16). Antibodies were used in study of myoglobin (sc-25607, Santa Cruz), PGC-1 (sc-13068, Santa Cruz), Tubulin (ab7291, Abcam), myosin (M8421, Sigma), pAMPK (Thr 172, #2531, Cell signaling) and p-p38 (sc-7975, Santa Cruz). To detect multiple signals from one membrane, the membrane was stripped with a stripping buffer. Intensity of the immunoblot signal was quantified using a computer program, ImageJ 1.37v (NIH). The mean values of results from three experiments (6 mice each group) were presented. The antibodies to PGC-1α and UCP-1 were from Dr. Thomas Gettys at Pennington Biomedical Research Center, Baton Rouge, La.
The fiber types in skeletal muscle were examined using two methods: succinate dehydrogenase (SDH) staining for […] and immunostaining of type I myosin heavy chain. In the SDH staining, mid-belly cross-sections of muscle were cut at 8 μm in a cryostat (−20° C.). After drying for 5 min at room temperature, the sections were incubated at 37° C. for 60 min in the incubation solution containing 6.5 mmol/l sodium phosphate monobasic, 43.5 mmol/l sodium phosphate biphasic, 0.6 mmol/l nitroblue tetrazolium (74032, Sigma), and 50 mmol/l sodium succinate (14160, Sigma). The sections were rinsed three times (30 sec/time) in 0.9% saline, 5 min in 15% ethanol and then mounted with aqueous mounting medium (Dakocyrtoma).
Fresh skeletal muscle was collected, embedded in gum tragacanth mixed with OCT freezing matrix, and quickly frozen in isopentane cooled in liquid nitrogen. The tissue slides were obtained through serial cross-section cutting at 8 um thickness and processed with a standard procedure. The slides was blotted with a monoclonal antibody against the type I myosin heavy chain (M8421, Sigma) at 1:200 dilution. After being washed, the slide was incubated with a biotinylated secondary antibody (BA-2000). For PGC-1 staining, paraffin sections (8 μm) of BAT or inguinal fat on slides were deparaffinized and blotted with primary antibody of PGC-1 (sc-13067, Santa Cruz) at 1:200, the sections were washed and incubated with a biotinylated secondary antibody (rabbit IgG) in ABC kit. The slides were then incubated with the ABC elite reagent (PK-6101) and color reaction was performed using the DAB substrate kit (SK-4100) for myosin I and AEC substrate kit (AEC101, Sigma) for PGC-1a according to instructions by the manufacturers.
To look for oxidative fiber in skeletal muscle, the vastus laterais muscle was isolated from mice that were fed on HFD for 13 weeks. […] A fiber type analysis was conducted in the vastus laterais, gastrocnemius (rich in glycolytic fibers) and soleus (rich in oxidative fiber). Serial cryostat sections of muscle were made from vastus lateralis, gastrocnemius (gastr.) and soleus muscle. The slides were stained with antibody against Type I myosin heavy chain for oxidative fibers. The ratio of type I fibers were increased in all of the skeletal muscle of butyrate-treated mice (data not shown). Succinate dehydrogenase staining of oxidative fibers was done on serial cryostat sections of the vastus lateralis and gastrocnemius (gastr.) muscle.
To quantify the amount of protein of type 1 myosin heavy chain and PGC-1α, whole cell lysates were prepared from muscle tissues and analyzed in an immunoblot. Signals for PGC-1α, type I myosin heavy chain (Myosin), myoglobin, phospho-AMPK and phospho-p38 (p-p38) were blotted with specific antibodies. Relative signal strength was quantified for each band and expressed in FIG. 5B. The results are the mean±SE (n=8 mice). *P<0.01, ** P<0.001 (vs. control). […] A mean value of each protein was presented in the bar figure in FIG. 5B.
AMPK and p38 activities were examined by their phosphorylation status. […]
For orientation: In western blotting, separated proteins are transferred to a membrane and probed.

In assay [2] the test system is C57BL/6J mice on high fat diet. Nature of the assay: Blood lipids and TNF-a in HFD mice. The method, then:
The serum fatty acids including butyrate were examined using a protocol described elsewhere (18), and as described below in Example 10. The fatty acids in feces were determined using a protocol as described by Schwarz (19). Triglyceride and cholesterol were measured in the whole blood with the Cardiochek portable test system.
Levels of cholesterol, total triglyceride and inflammation cytokines (TNF-a) were elevated in the blood of dietary obese mice. With 5% SB supplementation, these risk factors for cardiovascular disease were all reduced in the mice (FIG. 10A-E). Blood samples were taken from control and butyrate-supplemented mice at 10 weeks on HFD. The cholesterol, HDL (high density lipoprotein), LDL (low density lipoprotein), and triglyceride were measured with cholesterol reagent kit (cat #. 80015, Rainchem, San Diego, Calif.), and the Cardiochek whole blood test system (Polymer Technology Systems, Inc. IN). Data are presented as means±SEM (n=6). **P<0.001 by Student's t test.

The subject of assay [3] is C57BL/6J mice on high fat diet. The assay can be described thus: Butyrate at 2.5% w/w in HFD. The following applies: butyrate 2.5% w/w in HFD. The method, then: Sodium butyrate (#303410, Sigma) was tested at two dosages, 5% and 2.5% w/w in HFD. The metabolic effects presented above were from 5%. […] Insulin sensitivity at 12 weeks as indicated by insulin tolerance test (ITT) and glucose tolerance test (GTT) at 13 weeks was higher in the butyrate group than that of the control group (FIGS. 12C and 12D). For the glucose tolerance test, after an overnight fast, 2.5 g/kg glucose was injected intraperitoneally. Blood glucose was measured as described above at 0, 30, 60 and 120 min after injection. […] show values as the means±SE (N=8 in each group), and * indicates p<0.05.

Structures are written as SMILES.

Take `CCCC(=O)[O-].[Na+]` [sodium butyrate]: in assay [1] (immunoblot), the “AMPK phosphorylation in muscle lysate” value is given as “increase in their phosphorylation”, the “PGC-1α protein in muscle” value is “significant increase”, the “myoglobin protein in muscle” value was “also increased” and the “p38 phosphorylation in muscle lysate” value is reported as “increase in their phosphorylation”. Further, in assay [1] (immunoblot), the “type 1 myosin heavy chain protein in muscle” value is given as “significant increase”. Moreover, the “Type I fibers (succinate dehydrogenase staining)” value in assay [1] (vastus lateralis and gastrocnemius) was “increase in Type I fibers”. Besides, the “ratio of type I fibers (Type I myosin heavy chain immunostaining)” value in assay [1] (vastus lateralis, gastrocnemius, soleus) is reported as “increased”. For the same compound, in assay [2] (5% SB in HFD, 10 weeks, blood), the “LDL, reduction vs control” value is 41%; the “Triglyceride, reduction vs control” value came out at 40%; the “total cholesterol, reduction vs control” value worked out at 25%. In addition, in assay [2] (5% SB in HFD, 10 weeks, blood, Luminex), the “TNF-a, reduction vs control” value worked out at 70%. Also, the “blood total fatty acids” value in assay [2] (butyrate 5% w/w in HFD) is listed as “decreased”. In assay [3] (12 weeks), the body weight result is on record as “reduced” and the “insulin sensitivity by insulin tolerance test (ITT)” value is given as “higher”. Further, the fat content entry in assay [3] (12 weeks, NMR) is “reduced”. Moreover, in assay [3] (13 weeks, 2.5 g/kg glucose i.p.), the “insulin sensitivity by glucose tolerance test (GTT)” value is on record as “higher”.

Source of the values: US20130123358A1, “Metabolic Benefits to Butyrate as a Chronic Diet Supplement” (priority 2009, published 2013).
